From patent US6080771A, “DC107 derivatives” (Kyowa Hakko Kogyo Co., Ltd., priority 1996, dated 2000)
Values after ≈ are worked out from the molar mass of the structure shown.

How the values were obtained:
[1] = test system: Bacillus substilis NO. 10707; test: Antimicrobial activity, agar dilution method (MIC), BS; format: cell-based; details: NO.10707, agar dilution, pH 7, read-out: MIC, BS
Source text: | BS: Bacillus substilis NO. 10707

[2] = test system: Klebisiella pneumoniae ATCC 10031; test: Antimicrobial activity, agar dilution method (MIC), KP; format: cell-based; details: agar dilution, pH 7; read-out: MIC, KP
Source text: | KP: Klebisiella pneumoniae ATCC 10031

Escherichia coli ATCC 26 = test: Antimicrobial activity, agar dilution method (MIC), EC; format: cell-based; details: ATCC26, agar dilution, pH 7, read-out: MIC, EC
Source text: | EC: Escherichia coli ATCC 26

[3] = test system: Sarcoma 180 mouse solid tumor; test: Antitumor activity against Sarcoma 180 mouse solid tumor; format: in vivo, male ddY mice; details: Sarcoma-180, iv, 168 h, single i.v., tumor volume on day 7 from transplant, read-out: T/C (tumor volume ratio treated/control)
Description: To a ddY mouse were intraperitoneally transplanted 5×10^6 sarcoma 180 cells. On the seventh day from the transplant, the cells were collected from the ascites, washed once with sterilized physiological saline, and then diluted with sterilized physiological saline to prepare a cell suspension having a concentration of 5×10^7 cells/mL. This suspension was transplanted in an amount of 0.01 mL to a subcutaneous part of the right axilla of each of male ddY mice each weighing 20±1 g.
A test compound was dissolved in physiological saline containing polyoxyethylene sorbitan monolaurate. At 24 hours after the tumor transplant, 0.2 mL of the solution was intravenously administered to the tail of each of a group of five mice.

HeLa S3 cells = test: HeLa S3 cell growth inhibition test (Neutral Red); format: cell-based; details: Homo sapiens, HeLa S3; 72 hours, 37° C.; read-out: HeLa S3 Cell Growth Inhibition Activity, IC50
Description: In each well of a 96-well microtiter plate was placed 0.1 mL of HeLa S3 cells having a concentration of 8×10^3 cells/mL and prepared in an MEM culture medium containing 10% fetal bovine serum and 2 mM glutamine. After the cells were incubated overnight at 37° C. in a carbon dioxide incubator, a test compound suitably diluted with a medium was added to the wells in an amount of 0.05 mL for each well. The cells were incubated at 37° C. for 72 hours in a carbon dioxide incubator. After the culture supernatant was removed, 0.1 mL of a culture medium containing 0.02% Neutral Red was added to each well. The cells were then incubated at 37° C. for 1 hour in a carbon dioxide incubator to dye the cells. After the culture supernatant was removed, each residue was rinsed once with physiological saline and the pigment was extracted with 0.001N hydrochloric acid/30% ethanol. The absorbance at 550 nm of each extract was measured with a microplate reader. The drug concentration required for the 50% inhibition of cell growth, which is referred to as IC50, was calculated by comparing the absorbance for untreated cells with those for cells treated with the drug in known concentrations.

[4] = test system: Enterococcus hirae ATCC 10541; details: pH 7
Description: Antimicrobial activity was determined by the agar dilution method using a culture medium (pH 7) prepared by dissolving 3 g of Bacto-Tryptone (manufactured by Difco, Co.), 3 g of meat extract, 1 g of yeast extract, 1 g of glucose, and 16 g of agar in 1 l of water.
EH: Enterococcus hirae ATCC 10541

[5] = test system: Staphylococcus aureus ATCC 6538P; test: Antimicrobial activity, agar dilution method (MIC), SA; format: cell-based; details: ATCC6538P, agar dilution, pH 7, read-out: MIC, SA
Source text: | SA: Staphylococcus aureus ATCC 6538P

[6] = background, Japanese Published Unexamined Patent Application No. 112988/89; cited from earlier work
various bacteria = details: background, Japanese Published Unexamined Patent Application No. 112988/89; cited from earlier work

SMILES | MIC [1] [µg/mL] | MIC [2] [µg/mL] | MIC (Escherichia coli ATCC 26) [µg/mL] | response vs control in vivo at 4 mg/kg ([3]; 4.0 mg/kg) [%] | IC50 (HeLa S3 cells) [nM] | MIC, EH [4] [µg/mL] | MIC [5] [µg/mL] | response vs control in vivo at 8 mg/kg ([3]; 8.0 mg/kg) [%] | response vs control in vivo at 16 mg/kg ([3]; 16 mg/kg) [%] | antitumor activity [6] | antimicrobial activity (various bacteria)
COCCOCCOCC(=O)OC1/C=C(\C)CCC2(CC(=O)NC(C)c3nc(cs3)/C=C\C=C\C1=O)[S+]([O-])SC(=O)C2(C)O (stereo not shown) [Compound 2] | 0.13 (≈ 0.194 µM) | 0.23 (≈ 0.343 µM) | 1.8 (≈ 2.68 µM) | 30 | 25 | 0.23 (≈ 0.343 µM) | 0.13 (≈ 0.194 µM) |  |  |  | 
COCCOCCOCC(=O)OC1/C=C(\C)CCC2(C(C)(O)C(=O)SCc3oc(=O)oc3C)CC(=O)N(C(C)c3nc(cs3)/C=C\C=C\C1=O)[S+]2[O-] (stereo not shown) [Compound 12] | 42 (≈ 53.6 µM) | 42 (≈ 53.6 µM) | 4.2 (≈ 5.36 µM) |  | 30 | 42 (≈ 53.6 µM) | 42 (≈ 53.6 µM) | 39 |  |  | 
COCCOCCOCCOCCOCC(=O)OC1/C=C(\C)CCC2(C(C)(O)C(=O)SCc3oc(=O)oc3C)CC(=O)N(C(C)c3nc(cs3)/C=C\C=C\C1=O)[S+]2[O-] (stereo not shown) [Compound 14] | 2.6 (≈ 2.99 µM) |  |  |  | 35 | 2.6 (≈ 2.99 µM) | 5.2 (≈ 5.97 µM) |  |  |  | 
COCCOCCOCC(=O)OCCOCCOCCOCCOCC(=O)OC1/C=C(\C)CCC2(C(C)(O)C(=O)SCc3oc(=O)oc3C)CC(=O)N(C(C)c3nc(cs3)/C=C\C=C\C1=O)[S+]2[O-] (stereo not shown) [Compound 39] | 2.6 (≈ 2.56 µM) | 2.6 (≈ 2.56 µM) |  |  |  | 1.3 (≈ 1.28 µM) | 5.2 (≈ 5.11 µM) |  | 38 |  | 
C/C1=C\C(O)C(=O)/C=C/C=C\c2csc(n2)C(C)NC(=O)CC2(CC1)[S+]([O-])SC(=O)C2(C)O (stereo not shown) [DC107] |  |  |  |  |  |  |  |  |  | antitumor activity | antimicrobial activity against various bacteria
